Results reported in patent publication US20100055147A1, “ANGIOTENSIN (1-7) ELUTING STENT” (priority 2006, published 2010).

How the values were obtained:
[1] = system: neointima formation in the rat abdominal aorta; experiment: Neointima area in stented rat abdominal aorta (histology); type: in vivo
Source text: (§1) Specific pathogen-free, male Wistar rats (Harlan, Horst, Netherlands) were fed standard rat chow and water ad libitum. For Ang-(1-7) administration by minipump, 28 rats were used. The animals were anaesthetised with O2, N2O and isoflurane (Abbot B.V., Hoofddorp, Netherlands). In 20 animals, bare metal stents (Medtronic Driver® 2.5×8 mm stents) were placed in the abdominal aorta. Upon stent placement, osmotic minipumps (Model 2004, Alzet, Charles River, Maastricht, The Netherlands) were implanted subcutaneously for drug delivery via a catheter in the jugular vein. The pumps infused either Ang-(1-7) (Bachem, Well am Rhein, Germany) (24 μg/kg/h) (n=10) or saline (0.25 μl/h) (n=10). Furthermore, a control group underwent sham surgery (n=8: surgery identical to stent groups, but without balloon insertion and stenting), and received an osmotic minipump releasing saline. Treatment continued for four weeks. Five rats were excluded because of technical failure (aortic leakage or minipump failure) resulting in n=7 for Ang-(1-7) infusion, n=10 for saline infusion, and n-6 for sham-operated rats. […]
To determine if Ang-(1-7) infusion by minipump or elution from the stent reduced neointima formation, neointima area was measured in animals which received Ang-(1-7) either by stent or minipump (Table 1).

[2] = system: isolated thoracic aorta rings; experiment: Organ bath, isolated thoracic aortic rings four weeks after stenting; type: in vivo, rat; conditions: minipump infusion, FIG. 5
Source text: Specific pathogen-free, male Wistar rats (Harlan, Horst, Netherlands) were fed standard rat chow and water ad libitum. For Ang-(1-7) administration by minipump, 28 rats were used. The animals were anaesthetised with O2, N2O and isoflurane (Abbot B.V., Hoofddorp, Netherlands). In 20 animals, bare metal stents (Medtronic Driver® 2.5×8 mm stents) were placed in the abdominal aorta. Upon stent placement, osmotic minipumps (Model 2004, Alzet, Charles River, Maastricht, The Netherlands) were implanted subcutaneously for drug delivery via a catheter in the jugular vein. The pumps infused either Ang-(1-7) (Bachem, Well am Rhein, Germany) (24 μg/kg/h) (n=10) or saline (0.25 μl/h) (n=10). Furthermore, a control group underwent sham surgery (n=8: surgery identical to stent groups, but without balloon insertion and stenting), and received an osmotic minipump releasing saline. Treatment continued for four weeks. Five rats were excluded because of technical failure (aortic leakage or minipump failure) resulting in n=7 for Ang-(1-7) infusion, n=10 for saline infusion, and n-6 for sham-operated rats.
To test the effect of Ang-(1-7)-eluting stents (see Example 1 for details), 36 rats underwent placement of three types of stents into the abdominal aorta, bare metal stents, stents coated with polymer alone, or stents coated with polymer containing approximately 90 μg Ang-(1-7). Six rats were excluded because of technical failure during surgery, and three stents could not be processed due to incomplete polymerisation of embedding plastic (see below) leaving n=9 for bare metal stent, n=10 for stent with polymer only and n=8 for stent with polymer+Ang-(1-7).
Twenty-eight days after stent implantation, the animals were anaesthetised with O2, N2O and isoflurane, and systemically heparinized with 500 IE intravenously (Leo Pharma B.V., Breda, The Netherlands). The stented abdominal aortas were harvested, fixed, embedded in methylmethacrylate, sectioned and stained for histological analysis as described previously. […]
The stented aortas were evaluated in organ bath studies with isolated vascular rings. […] The endothelium-dependent vasodilation was assessed by a cumulative dose of metacholine (MeCh; 10 nM to 0.1 mM). […] The NO-dependent vasodilation to metacholine was calculated, by subtraction of the vasodilation in the presence of L-NMMA from the total vasodilation. The PG-dependent vasodilation in response to MeCh was calculated by subtraction of the vasodilation in the presence of L-NMMA and indomethacin from the vasodilation in the presence of L-NMMA. The EDHF-dependent vasodilation was determined by the vasodilation to metacholine in the presence of L-NMMA and indomethacin. […]

iliac artery = experiment: Small vessel myograph, iliac artery rings four weeks after stenting; type: in vivo, rat; conditions: FIG. 3
Source text: as §1, with “weeks.” for “weeks. Five rats were excluded because of technical failure (aortic leakage or minipump failure) resulting in n=7 for Ang-(1-7) infusion, n=10 for saline infusion, and n-6 for sham-operated rats.”
(§2) Iliac and brachial arteries were prepared under a dissection microscope in Krebs solution that was kept at 4° C. […] After this, vessels were brought to tension in 20 μm steps until reaching a diameter corresponding to 100 mmHg transmural pressure (L100, calculated by exponential curve fitting with Excel software). […] All responses were recorded in grams tension. The responses to MeCh were expressed as the percent decrease in PE EC70 responses.

brachial artery = experiment: Small vessel myograph, brachial artery rings four weeks after stenting; type: in vivo, rat; conditions: minipump infusion
Source text: as §1, with “weeks.” for “weeks. Five rats were excluded because of technical failure (aortic leakage or minipump failure) resulting in n=7 for Ang-(1-7) infusion, n=10 for saline infusion, and n-6 for sham-operated rats.”
as §2

[3] = system: rat bone marrow mononuclear cells (MNC) and endothelial progenitor cells (EPC); experiment: Cultured rat bone marrow mononuclear cells (MNC) and endothelial progenitor cells (EPC); type: cell-based; conditions: 10^−7 mol/L, 7 days of culture
Description: Five rats were sacrificed by exsanguination under O2, N2O and isoflurane anaesthesia. Bone marrow was isolated from the left and right femurs by flushing the bone marrow cavity with sterile phosphate-buffered saline at room temperature (PBS, Gibco, Invitrogen, Breda, The Netherlands). From each individual rat, MNC were obtained by density gradient centrifugation at 2000 rpm (MSE Mistral 3000i, UK) for 20 minutes at room temperature according to manufacturer's instruction (Cedarlane Laboratories ltd., Hornby, Canada). Cells from individual rats were then resuspended in endothelial cell basal medium-2 (EGM; Cambrex Bioproducts, Clonetics, New Jersey, USA) containing supplemented 2% fetal bovine serum and EGM-2 SingleQuots (Clonetics). At day 1, 5×10^5 cells/well were seeded in 1% gelatin (225 bloom, Sigma-Aldrich, Zwijndrecht, The Netherlands) precoated 96-well culture plates (Costar, Corning, N.Y., USA) at 37° C. in a humidified incubator in the presence of 5% CO2. At day 3 of culture, medium with non-attached cells was removed, and replaced by fresh culture medium containing Ang-(1-7) at 10^−7 mol/L with or without antagonists (treatment medium). Next, cells were grown for 7 days, changing treatment medium at day 5 and day 7. At day 9, treatment medium was removed and culture medium supplemented with 10 μg/mL acetylated low-density lipoprotein (Dil-Ac-LDL) was added to the cells for 4 h. […]
Detection of staining was performed with the use of fluorescence microscopy (Leica, Wetzlar, Germany) at a magnification of 200×. […] Cells were quantified with the use of ImagePro software (Media Cybernetics, Silver Spring, USA). In the occasion that the presence of cell clusters hindered proper digital quantification, cell numbers were assessed by hand. […]
To this purpose MNC were isolated from rat bone marrow and cultured for 2 days to allow attachment. […] To determine if Ang-(1-7) preferentially stimulated EPC, the number of EPC was expressed as a percentage of the total population of MNC (FIG. 6B). […]

Substance: angiotensin-(1-7) (DRVYIHP; listed as Homo sapiens) [Ang-(1-7)]
- neointimal formation (in words) ([1]; infusion using a minipump): reduction
- Neointima area NIA ([1]; minipump infusion 24 μg/kg/h for four weeks, bare metal stent in rat abdominal aorta, p < 0.05 vs. saline): 0.51 ± 0.05 mm²
- EDHF contribution to metacholine vasodilation ([2]; thoracic aorta): stimulated
- NO release (contribution to metacholine vasodilation) ([2]; thoracic aorta): did not alter
- PG contribution to metacholine vasodilation ([2]; thoracic aorta): stimulated
- Emax of total response on metacholine ([2]; stented group showed 40% decrease): full recovery
- vasodilation upon stimulation with metacholine (iliac artery; chronic infusion by minipump, iliac artery (downstream)): increased
- vasoconstrictions (phenylephrine) (iliac artery; minipump infusion, iliac artery): remained equal
- vasodilator function (brachial artery; brachial artery (remote), FIG. 4): improved
- vasoconstrictor responses to phenylephrine (brachial artery; brachial artery, to the level of sham-operated rats): decreased
- number of EPC ([3]; FIG. 6A): increased
- number of MNC ([3]; FIG. 6A): increased
- relative number of EPC (percentage of total MNC) ([3]; FIG. 6B): increased
